Activity calls are given as the source filed them. The calls are words filed in the database; no cut-off is given here.
Tests used:
[1] = Potentiation of amphetamine-induced lethal activity in Wistar albino rat assessed as mortality after 4 days; type: organism-based; details: in vivo, read-out: Activity
Mus musculus [2] = assay: Effect on central nervous system in mouse assessed as behavioral activity at 10 to 20 mg/kg, ip; type: functional, organism-based
Mus musculus [3] = assay: Effect on behavioral activity in mouse assessed as convulsion-induced hind limb extension at 30 to 40 mg/kg, ip; type: functional, organism-based; details: Hindlimb
Rattus norvegicus [4] = assay: Antinociceptive activity in Wistar albino rat assessed as increase in latent period of tail flick response at 20 mg/kg, ip by tail-hot wire technique; type: functional; details: route intraperitoneal
Rattus norvegicus [5] = assay: Antinociceptive activity in Wistar albino rat assessed as increase in latent period of tail flick response at 10 mg/kg, ip by tail-hot wire technique; type: functional; details: route intraperitoneal
Mus musculus [6] = assay: Potentiation of hexobarbitone-induced sleeping time in mouse at 5 mg/kg, ip; type: functional; details: route intraperitoneal
Rattus norvegicus [7] = assay: Increase in rectal temperature in Wistar albino rat at 5 mg/kg, ip by telethermometer relative to control; type: functional; details: route intraperitoneal
Rattus norvegicus [8] = assay: Increase in rectal temperature in Wistar albino rat at 20 mg/kg, ip by telethermometer relative to control; type: functional; details: route intraperitoneal
Mus musculus [9] = assay: Potentiation of hexobarbitone-induced sleeping time in mouse at 20 mg/kg, ip; type: functional; details: route intraperitoneal
Mus musculus [10] = assay: Increase in locomotor activity in mouse at 10 mg/kg, ip after 30 mins by actophotometer; type: functional, organism-based; set-up: dose 10 mg/kg
[11] = Acute toxicity in ip dosed mouse; type: organism-based; details: in vivo
Hoplobatrachus tigerinus = assay: Induction of tetanic convulsion in frog at 40 mg/kg dosed in ventral lymph sac; type: functional, organism-based; set-up: dose 40 mg/kg
Rattus norvegicus [12] = assay: Increase in rectal temperature in Wistar albino rat at 10 mg/kg, ip by telethermometer relative to control; type: functional; details: route intraperitoneal
Mus musculus [13] = assay: Induction of hypnosis in mouse at 100 mg/kg, ip; type: functional; details: route intraperitoneal
Mus musculus [14] = species on record: Mus musculus; assay: Effect on behavioral activity in mouse in presence of mephenesin; type: functional, organism-based
[15] = Toxicity in Wistar albino rat assessed as mortality after 4 days; type: organism-based; details: in vivo, read-out: Activity

Question: Which mortality at 96 h [1] does the source give for `COc1ccc(C[C@H]2c3cc(O)c(OC)cc3CCN2C)cc1O` [(S)-RETICULINE] here?
Answer: 60%

Question: What about the Activity (Mus musculus [2]) of the same molecule?
Answer: Active

Question: And the Activity (Mus musculus [3])?
Answer: Active

Question: And the Activity (Rattus norvegicus [4])?
Answer: 11.9 s

Question: What about the Activity (Rattus norvegicus [5]) of the same molecule?
Answer: 7.8 s

Question: And the Activity (Mus musculus [6])?
Answer: 56.2 min

Question: What about the Activity (Rattus norvegicus [7]) of the same molecule?
Answer: 0.36 °C

Question: What about the Activity (Rattus norvegicus [8]) of the same molecule?
Answer: 1.1 °C

Question: And the Activity (Mus musculus [9])?
Answer: 23.7 min

Question: And the Activity (Mus musculus [10])?
Answer: Active

Question: And the LD50 [11]?
Answer: 56 mg/kg

Question: What about the Activity (Hoplobatrachus tigerinus) of the same molecule?
Answer: Active

Question: What about the Activity (Rattus norvegicus [12]) of the same molecule?
Answer: 0.69 °C

Question: For `CN1C(=O)NC(=O)C(C)(C2=CCCCC2)C1=O` (stereo unspecified) [HEXOBARBITAL], which Activity (Mus musculus [13]) is on record?
Answer: 31.3 min

Question: Which Activity (Mus musculus [14]) does the source give for `Cc1ccccc1OCC(O)CO` (stereo unspecified) here?
Answer: inactive

Question: With `CC(N)Cc1ccccc1` (stereo unspecified) [AMPHETAMINE] as the molecule, how does the mortality at 96 h [15] read?
Answer: 10%

Source: ChEMBL document CHEMBL1158649, “Constituents of Pachygone ovata and Pharmacological Action of its Major Leaf Alkaloid” (J Nat Prod, 1979)
